# Test results as given in a melting point compilation (Tetko et al.; mined from patent text by program, amines drawn as free bases though some values may be those of a salt).
row,melting point [°C],SMILES
1,81 to 82,CCCCOCCOc1ccc(-c2ccc(N3CCCC3)c(C(C)=CC(=O)OCC)c2)cc1
2,131 to 133,COc1cc2c(cc1F)C1(CO2)C(=O)N(CC2CCCCO2)c2ccccc21 (stereo not drawn)
3,98,COc1cc2c(cc1[N+](=O)[O-])N(CC(=O)N(C)C)C(=O)CN(CC(=O)N(C)C)C2
4,201 to 203,CC(=O)Oc1ccc2c(c1)C(=O)NC(C(Cl)(Cl)Cl)O2 (stereo not drawn)
5,154 to 156,CCCCS(=O)(=O)NCc1ccc(CCN2CCN(c3ccncc3)CC2)cc1
6,70 to 74,CCCCCCCCCCOc1ccc(C(=O)O[C@@H]2CC[C@H](NC(=O)[C@H](OC)[C@H](O)[C@@H](O)[C@H](O)/C=C/C(C)(C)C)C(=O)NC2)cc1
7,90,COc1ccc(C2CCCCC2=O)cc1 (stereo not drawn)
8,136 to 138,CCOC(=O)c1nc(NC)sc1-c1ccncc1
9,230 to 232,CCn1c(=O)c2cnc(N)nc2n(CC)c1=O
10,73,CNC(=O)[C@@H]1C[C@@H](OC)CN1S(=O)(=O)c1ccc(Cl)c(COc2cccc3c2NC(C)(C)C=C3n2cncn2)c1Cl
11,123 to 124,CC(=O)CC1CN=C(c2cc3cccc(N(C)S(=O)(=O)c4cccs4)c3[nH]2)S1 (stereo not drawn)
12,138,CCOC(=O)c1cn(C2CC2)c2nc(SCC)ncc2c1=O
13,153 to 154,Cn1c(C(=O)OCc2cc(C(F)(F)F)cc(C(F)(F)F)c2)c(-c2ccccc2)c2ccccc2c1=O
14,163,O=C(Nc1nc(C2CC2)no1)C(c1ccccc1)c1ccccc1
15,112 to 113,COc1c(F)cccc1OCCN1C(=O)c2ccccc2C1=O
16,77 to 78,Clc1ncccc1OCCOc1ccccc1
17,230 to 231,O=S1CCc2nc(N3CCN(c4ccccc4)CC3)nc(Nc3cccc(Cl)c3)c21 (stereo not drawn)
18,241 to 245,CCCc1nc(CC)c(C=O)n1Cc1ccc(-c2ccccc2-c2c(O)c(=O)c2=O)cc1
19,149 to 150,Cc1oc(-c2ccccc2)nc1COc1ccc(COc2ncccc2CC#N)cc1
20,85 to 96,COc1cc(C2CCN(C[C@H](Oc3ncc4ccc(-c5ccccc5N(C)S(C)(=O)=O)n4n3)C(F)(F)F)CC2)ccc1N
21,258,Oc1nc(Cl)nc(NN=Cc2cc(C(F)(F)F)cc(C(F)(F)F)c2)n1
22,92.7 to 95.4,CC(=O)NC[C@H]1CN(c2ccc(-n3nccc3-c3ccc(Br)cn3)c(F)c2)C(=O)O1
23,143 to 145,CC(C)NCC(O)COc1cccc2c1CCCC(=O)N2 (stereo not drawn)
24,204 to 205,CC(=O)NCC1CC(c2ccc(N3CCS(=O)CC3)c(F)c2)=NO1 (stereo not drawn)

row,melting point [°C],SMILES
1,167 to 168,CCOC(=O)C1(Cc2ccc(OC)c(OC)c2)C(=O)NCC1c1ccc2c(c1)OCO2 (stereo not drawn)
2,85 to 87,CCCCCN1C(=O)C2(COc3cc4c(cc32)OCO4)c2ccccc21 (stereo not drawn)
3,145 to 146,CC(C)(C)CC(=O)c1ccc(OCC(=O)O)c(Cl)c1Cl
4,123,COC(=O)c1c(SCc2ccc(OC)cc2)ncn1Cc1cc2c(cc1Cl)OCO2
5,202,NS(=O)(=O)c1cccc(-c2cccc(-c3nc(-c4ccc(Cl)cc4Cl)cc(C(F)(F)F)n3)c2)c1
6,213 to 214,COc1cc(OC)c2c(=O)[nH]c(-c3cc(C)c(OCCN4CCN(C(C)=O)CC4)c(C)c3)nc2c1
7,116 to 120,Nc1n[nH]c2c1CCC2
8,32 to 34,C#Cc1ccc(C(=O)Cl)cc1
9,57 to 61,COc1c2c(c(OC)c(OC)c1OC)CC(CCCCCCCCNC(C)=O)C2
10,135 to 136,COc1ccc2ncc3c(c2c1)[C@@H](O)C(OC)(OC)C[C@@H]3C
11,185 to 186,COc1ccc(F)cc1Oc1c(Cl)ncnc1NS(=O)(=O)c1ccc(C(F)(F)F)cc1
12,208,OC(Cn1cncn1)(c1ccc(Cl)cc1)C1(n2cncn2)CC1 (stereo not drawn)
13,267,N=C(N)NCCNc1c(C(=O)O)cnc2ccccc12
14,176,CC1(C)CC(=O)C(C(=O)Nc2ccc(C(F)(F)F)cc2)C(=O)O1 (stereo not drawn)
15,216 to 218,CN(c1ccc(S(C)(=O)=O)cc1)S(=O)(=O)c1cccc(NC(=O)c2ccc(Br)cc2)c1
16,154 to 157,CNC(=O)[C@@H](C[C@H](O)[C@H](CC1CCCCC1)NC(=O)OC(C)(C)C)C(C)C
17,228 to 230,CCN(CC)c1nc(C)nc2nc(-c3ccncc3)[nH]c12
18,208 to 209,O=C(O)Cc1nc(-c2ccc(F)cc2)oc1-c1ccoc1
19,65,CCCN(Cc1ccc(C(=O)NC2Cc3ccccc3C2)cc1)C1CCc2ncsc2C1 (stereo not drawn)
20,72 to 73,CCOC(=O)C(C)c1ccc(-c2ccc(F)cc2F)c(O)c1 (stereo not drawn)
21,282 to 283,NC(=O)c1ccc2c(c1)S(=O)(=O)c1ccccc1C2=O
22,98 to 99,COC(=O)c1c(Cl)cc(Cl)cc1NC(=O)CSc1ccccc1Cl
23,191 to 192,O=C(c1ccco1)C1C(=O)N(C(=O)Nc2ccc(F)cc2F)c2ccccc21 (stereo not drawn)
24,224 to 228,NNC(=S)N1CCN(c2nc3cccccc-3n2)CC1

row,melting point [°C],SMILES
1,177 to 181,CC12CCC3c4ccc(C(=O)O)cc4CCC3C1CCC2C(=O)C=Cc1ccccc1 (stereo not drawn)
2,182 to 183,COCCNC(=O)c1ccc(CN2C(=O)C3(COc4cc5c(cc43)CCO5)c3ccccc32)cc1 (stereo not drawn)
3,163 to 165,COc1cc(S(=O)(=O)c2ccncc2)ccc1N
4,162,CN(CC(=O)c1ccc(N(C)C)cc1)Cc1cc2c(=O)c(C(=O)NCc3ccc(Cl)cc3)cn(C)c2s1
5,78 to 83,Cc1noc(NS(=O)(=O)c2ccccc2-c2ccc(CC(C)C)cc2CNC=O)c1C
6,194 to 196,Cc1ccc(CC(CS)C(=O)Nc2cccc(C(=O)O)c2C)cc1 (stereo not drawn)
7,114 to 117,c1ccc(CN(Cc2ccccc2)c2ccc3sccc3c2)cc1
8,180,CCN(CC)CC(C)N1c2ccccc2Sc2ccc(C(N)=S)cc21 (stereo not drawn)
9,90 to 91.5,Cc1nc(-c2cccc(I)c2)no1
10,171,O=C(OCc1ccccc1)c1cc2cc(Br)ccc2nn1
11,150 to 151,COc1cc2c(c(Cl)c1Cl)CCCC2=O
12,169 to 172,Nc1ccc2c(c1)-c1ccccc1S2=O (stereo not drawn)
13,149 to 151,O=c1[nH]c(=O)n(CCCN2CCC(OC(c3ccccc3)c3ccccc3)CC2)c2ccccc12
14,76 to 78,CN(C)CCOc1cccc(C=CC(=O)N2CCc3c([nH]c4ccccc34)C2c2ccc3c(c2)OCO3)c1 (stereo not drawn)
15,168 to 170,CN(C)c1ccc2c(c1)CC(N1CCN(CCN3CCOC3=O)CC1)c1ccccc1S2 (stereo not drawn)
16,213 to 215,CC(=O)c1ccc(NC(=O)C=C(c2ccc(Cl)cc2)c2ccc(Cl)cc2)cc1
17,150 to 154,CCCCCCCCCCCCCCCC(=O)OCC(COC(=O)CCCCCCCCCCCCCCC)OCn1cnc2c(=O)[nH]c(N)nc21
18,186,CN(C)c1ccc(CN=C(Cc2ccccc2)N2CC3C(=O)CCC(c4ccccc4)(c4ccccc4)C3C2)cc1 (stereo not drawn)
19,124 to 128,CC(C)Oc1ccc(-c2ccc3oc(C4CCN(C(=O)OC(C)(C)C)CC4)nc3c2)cc1F
20,149 to 150,CCOC(=O)c1c(-c2ccc(OC)cc2)n2c3c(cccc13)OC(CCN1CCN(c3cc(C)ccn3)CC1)C2 (stereo not drawn)
21,210 to 215,O=C(Nc1cccnc1)N1CCc2cc(I)ccc21
22,86 to 87,OCc1ccc(-c2ccccc2)cn1
23,146 to 148,CC(C)(CO)NCC(=O)N1C[C@@H](F)C[C@H]1C#N
24,68,COc1ccc(C2NCCc3c2[nH]c2ccccc32)cc1F (stereo not drawn)

row,melting point [°C],SMILES
1,114 to 115,Clc1ccc2nc(CN3CCN(c4ncccn4)CC3)cn2c1
2,71 to 73,N#CCc1ccc(C2=CCCCC2)cc1
3,198 to 200,CN(Cc1cccc2c1CN(C1CCC(=O)NC1=O)C2=O)C(=O)Nc1cccc(C(F)(F)F)c1 (stereo not drawn)
4,157 to 160,COc1ccc(-c2ccc(C(CCC(=O)O)=NO)cc2)cc1
5,128 to 129,COc1cc2c(cc1O)CCN(Cc1ccccc1OC)C2
6,85 to 90,NCC1CCn2c(cc3ccccc32)C1 (stereo not drawn)
7,141 to 143,O=C(O)c1ccc(NCCCCCc2ccccc2)cc1
8,136 to 138,C(=C(c1ccccc1)c1ccccc1)c1ccc2c(c1)Cc1ccccc1-2
9,226 to 227,NC(=O)C1CCc2[nH]c3ccc(F)c(Cl)c3c2C1 (stereo not drawn)
10,187 to 189,CC(C)(C)CC(C)(C)c1ccc(Oc2cc(N)c(O)cc2[N+](=O)[O-])cc1
11,96 to 97,Cn1cc(Br)cc(Nc2ccn(CCO[Si](C)(C)C(C)(C)C)n2)c1=O
12,187 to 188,N#Cc1ccc(OCCCc2cn(C(c3ccccc3)(c3ccccc3)c3ccccc3)cn2)cc1
13,177,Cn1c(=O)c2ncn(CCCCCC(=O)O)c2n(C)c1=O
14,213 to 214,CC(=O)Nc1nccc(Oc2ccc3c(C(=O)Nc4ccc(F)c(C(F)(F)F)c4)cccc3c2)n1
15,136 to 137,CC(C)c1ocnc1C(=O)O
16,58,Nc1cc(Cl)c(F)cc1-c1cccc(Cl)c1
17,63 to 65,CC(C)(C)c1ccc(C(=O)CCCN2CCC(O)CC2)cc1
18,169 to 171,COc1ccc(F)cc1Oc1c(Cl)ncnc1NS(=O)(=O)c1ccc(Cl)cc1
19,178 to 180,CC1(C)Oc2cc3nonc3cc2C(NC(=O)NCCCl)C1O (stereo not drawn)
20,116 to 118,Cc1cccc(Cl)c1-n1nc(C(C)C)c(C#N)c1N
21,108,C=C(C)C(=O)OCCc1ccc(-c2ccc(OC(=O)C(=C)C)cc2)cc1
22,68,CC(C)(C)OC(=O)C1CCCC(c2ccccc2)N1 (stereo not drawn)
23,104 to 106,O=C(O)C(CCCCCc1ccc(Cl)cc1)S(=O)(=O)c1cccc(Cl)c1 (stereo not drawn)

row,SMILES,melting point [°C]
1,CN1C[C@H](CN2CCN(C(c3ccccc3)c3ccccc3)CC2)C[C@@H]2c3cccc4[nH]c(Br)c(c34)C[C@H]21,255
2,Cc1ccccc1C(=O)P1(=O)Oc2ccccc2-c2ccccc21 (stereo not drawn),102 to 104
3,Cc1nc(-c2ccc(C=CC3CN4CCC3CC4)cc2)no1 (stereo not drawn),93 to 97
